Laboratory results as given in patent US9791456B2, “Method for measuring ATR inhibition mediated increases in DNA damage” (Vertex Pharmaceuticals Incorporated, priority 2012, dated 2017).
pIC50: −log10 of the molar value.

How the values were obtained:
Type in all cases: cell-based
ATR [1] = biological target: T1, ATR (Homo sapiens, UniProt Q13535); test: ATR inhibition in PBMCs after treatment of human whole blood with UV, immunofluorescence; conditions: 50 J/m^2 UV, 10 μM VE-821
T1 construct: PBMCs were purified from fresh whole human blood; endogenous in cells; host or cells: human PBMCs / lymphocytes from fresh whole blood of healthy volunteers
T1 sequence (Q13535 whole entry): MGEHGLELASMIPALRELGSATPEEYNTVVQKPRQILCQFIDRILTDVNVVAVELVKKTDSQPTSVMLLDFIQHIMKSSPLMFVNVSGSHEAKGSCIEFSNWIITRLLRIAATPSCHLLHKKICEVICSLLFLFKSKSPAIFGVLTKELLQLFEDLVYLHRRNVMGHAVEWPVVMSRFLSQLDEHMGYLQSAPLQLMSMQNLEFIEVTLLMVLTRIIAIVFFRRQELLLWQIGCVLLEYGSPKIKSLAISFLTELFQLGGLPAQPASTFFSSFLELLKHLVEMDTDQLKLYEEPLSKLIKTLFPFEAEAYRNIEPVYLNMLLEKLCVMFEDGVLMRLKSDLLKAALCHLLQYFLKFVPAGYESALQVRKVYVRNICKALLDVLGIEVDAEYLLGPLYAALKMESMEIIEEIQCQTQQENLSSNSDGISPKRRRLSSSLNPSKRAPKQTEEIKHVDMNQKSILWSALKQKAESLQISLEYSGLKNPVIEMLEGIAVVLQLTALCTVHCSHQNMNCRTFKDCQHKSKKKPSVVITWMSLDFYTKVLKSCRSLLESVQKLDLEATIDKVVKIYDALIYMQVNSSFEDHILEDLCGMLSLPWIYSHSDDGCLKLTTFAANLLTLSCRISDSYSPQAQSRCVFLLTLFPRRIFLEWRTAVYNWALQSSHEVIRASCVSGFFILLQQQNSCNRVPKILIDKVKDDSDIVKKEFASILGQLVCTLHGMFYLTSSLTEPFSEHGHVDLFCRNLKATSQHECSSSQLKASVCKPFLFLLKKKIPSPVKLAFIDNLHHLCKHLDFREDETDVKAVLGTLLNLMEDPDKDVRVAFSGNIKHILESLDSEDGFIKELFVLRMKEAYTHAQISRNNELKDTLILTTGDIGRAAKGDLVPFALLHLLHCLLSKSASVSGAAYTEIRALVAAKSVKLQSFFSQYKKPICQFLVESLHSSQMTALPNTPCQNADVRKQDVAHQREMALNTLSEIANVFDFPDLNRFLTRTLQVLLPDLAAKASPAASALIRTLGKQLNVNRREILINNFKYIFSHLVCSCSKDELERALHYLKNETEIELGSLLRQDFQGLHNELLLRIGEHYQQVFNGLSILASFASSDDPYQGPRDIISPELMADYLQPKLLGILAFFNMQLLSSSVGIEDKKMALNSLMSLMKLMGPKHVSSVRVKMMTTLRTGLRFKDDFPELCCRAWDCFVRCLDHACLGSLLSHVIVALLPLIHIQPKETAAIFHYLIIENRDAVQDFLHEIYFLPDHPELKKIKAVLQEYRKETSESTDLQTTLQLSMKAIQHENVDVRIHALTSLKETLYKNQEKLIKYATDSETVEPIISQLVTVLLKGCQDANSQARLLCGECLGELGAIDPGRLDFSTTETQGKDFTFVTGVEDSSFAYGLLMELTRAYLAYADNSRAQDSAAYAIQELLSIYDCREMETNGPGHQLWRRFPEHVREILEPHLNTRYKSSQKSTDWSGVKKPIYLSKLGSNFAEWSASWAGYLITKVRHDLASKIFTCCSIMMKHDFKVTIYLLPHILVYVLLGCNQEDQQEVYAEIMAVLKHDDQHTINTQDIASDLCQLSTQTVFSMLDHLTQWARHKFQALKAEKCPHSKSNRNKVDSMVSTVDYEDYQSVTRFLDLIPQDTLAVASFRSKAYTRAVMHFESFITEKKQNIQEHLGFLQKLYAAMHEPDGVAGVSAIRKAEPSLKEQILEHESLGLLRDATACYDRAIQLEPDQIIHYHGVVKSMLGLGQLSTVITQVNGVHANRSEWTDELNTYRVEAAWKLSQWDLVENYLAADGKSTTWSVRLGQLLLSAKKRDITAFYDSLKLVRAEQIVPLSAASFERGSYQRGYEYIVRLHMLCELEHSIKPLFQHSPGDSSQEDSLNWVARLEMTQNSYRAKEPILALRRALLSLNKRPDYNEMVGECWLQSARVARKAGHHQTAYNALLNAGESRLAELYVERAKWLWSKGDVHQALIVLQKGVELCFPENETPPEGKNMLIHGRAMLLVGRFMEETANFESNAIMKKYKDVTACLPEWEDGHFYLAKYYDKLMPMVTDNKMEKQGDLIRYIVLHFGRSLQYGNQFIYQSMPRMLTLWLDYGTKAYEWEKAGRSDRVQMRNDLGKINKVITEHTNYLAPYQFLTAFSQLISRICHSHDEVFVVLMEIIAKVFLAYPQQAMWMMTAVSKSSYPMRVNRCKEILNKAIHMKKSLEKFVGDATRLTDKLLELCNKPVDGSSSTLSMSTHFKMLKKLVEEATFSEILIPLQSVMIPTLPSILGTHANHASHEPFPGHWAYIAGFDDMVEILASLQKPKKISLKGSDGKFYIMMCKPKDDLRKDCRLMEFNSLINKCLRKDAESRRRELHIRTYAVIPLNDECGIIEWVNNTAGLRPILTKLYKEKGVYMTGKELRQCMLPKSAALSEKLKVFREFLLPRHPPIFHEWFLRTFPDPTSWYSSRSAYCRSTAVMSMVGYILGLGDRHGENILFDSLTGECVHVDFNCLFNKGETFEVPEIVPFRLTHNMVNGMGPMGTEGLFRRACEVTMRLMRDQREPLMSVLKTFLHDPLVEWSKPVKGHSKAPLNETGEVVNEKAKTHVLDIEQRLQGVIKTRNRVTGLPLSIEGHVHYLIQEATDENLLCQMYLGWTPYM
T1 sequence (Q8WXE1 whole entry partner): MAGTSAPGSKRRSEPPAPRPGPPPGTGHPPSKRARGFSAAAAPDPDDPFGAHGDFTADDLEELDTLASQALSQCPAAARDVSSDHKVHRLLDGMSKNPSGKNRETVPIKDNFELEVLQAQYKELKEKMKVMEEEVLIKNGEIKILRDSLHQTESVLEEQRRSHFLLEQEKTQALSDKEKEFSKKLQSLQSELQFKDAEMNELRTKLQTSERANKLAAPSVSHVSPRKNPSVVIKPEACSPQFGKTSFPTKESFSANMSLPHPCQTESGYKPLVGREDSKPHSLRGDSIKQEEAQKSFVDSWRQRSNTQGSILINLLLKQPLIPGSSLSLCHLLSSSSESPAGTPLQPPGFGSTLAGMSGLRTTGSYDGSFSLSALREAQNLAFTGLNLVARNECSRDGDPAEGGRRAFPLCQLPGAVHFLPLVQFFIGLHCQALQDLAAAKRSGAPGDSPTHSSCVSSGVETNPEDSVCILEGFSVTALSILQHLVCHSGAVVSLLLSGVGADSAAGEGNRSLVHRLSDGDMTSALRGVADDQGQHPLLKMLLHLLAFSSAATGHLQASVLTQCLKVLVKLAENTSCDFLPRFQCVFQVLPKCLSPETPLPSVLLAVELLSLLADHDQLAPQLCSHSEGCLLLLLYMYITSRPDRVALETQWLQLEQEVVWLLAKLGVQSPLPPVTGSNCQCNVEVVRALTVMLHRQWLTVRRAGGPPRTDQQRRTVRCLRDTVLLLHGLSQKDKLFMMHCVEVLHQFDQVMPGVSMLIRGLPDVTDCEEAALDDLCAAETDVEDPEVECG
Protocol: Blood from healthy volunteers was collected by venepuncture into EDTA-coated blood collection tubes. […] Following 1 hour incubation at 37° C. and 5% CO2, blood was exposed to 50 J/m^2 UV light. Following 1 hour further incubation the blood mixture was transferred into 15 ml falcon tubes containing 2 mls FICOLL-PAQUE PLUS™ and the PBMCs separated using centrifugation through a FICOLL-PAQUE PLUS™ separation gradient. PBMCs were collected and washed twice using 10 mls PBS and resuspended in 1 ml PBS. PBMCs were counted using a haemocytometer and 1×10^5 PBMCs were centrifuged onto microscope slides using a CYTOSPIN 2™ centrifuge (Shandon) for 5 minutes at 450 rpm. Cells were fixed using 4% (w/v) paraformaldehyde for 20 minutes and permeablised using 0.5% (v/v) Triton-X-100 for 30 minutes. […] These were detected using the appropriate secondary antibodies diluted in 1% (w/v) BSA in PBS for 1 hour at room temperature protected from the light: anti-rabbit AlexaFluor 488 (Invitrogen, 1:1000) and anti-mouse AlexaFluor 546 (Invitrogen, 1:1000). […] Mean nuclear fluorescence for at least 50 nuclei was measured using Image) software (National Institutes of Health, USA) and the data analysed using GraphPad Prism software version 6.0.

[2] = tested on: pChk1^Ser345 in MCF7 cells; test: 4-nitroquinoline induced phosphorylation of Chk1 in MCF7 cells over time, immunofluorescence; conditions: Homo sapiens, 2.5 μM 4-nitroquinoline, 10 μM VE-821, for up to 3 hr
Protocol: (§1) Coverslips were sterilised in methanol and placed in the bottom of a 6-well culture dish. 2×10^5 MCF7 cells were seeded into each well of a 6-well culture dish in culture medium (RPMI-1640 with 10% FBS and 1% penicillin and streptomycin) and allowed to adhere for 24 hours. […] Cells were incubated at 37° C. for 0.5, 1 and 3 hours at which points they were washed with 2 mls PBS and fixed. Cells were fixed using 4% (w/v) paraformaldehyde for 20 minutes at room temperature and permeablised using 0.5% (v/v) Triton-X-100 for 30 minutes at room temperature. […] These were detected using the appropriate secondary antibodies diluted in 1% (w/v) BSA in PBS for 1 hour at room temperature protected from light: anti-rabbit AlexaFluor 546 (Invitrogen, 1:1000) or anti-mouse AlexaFluor 546 (Invitrogen, 1:1000). Coverslips were washed three times for 10 minutes in PBS after incubation with each antibody. DNA was stained using […] with DAPI (Vector Laboratories). Images were captured using a Zeiss LSM 700 confocal microscope (Zeiss) with Zen 2009 software (Zeiss) using and ×40 lens and wavelengths of 405 nm and 561 nm. Mean nuclear fluorescence for at least 50 nuclei was measured using Image) software (National Institutes of Health, USA) and the data analysed using GraphPad Prism software version 6.0.

γH2AX in MCF7 cells [3] = test: UV induced phosphorylation of H2AX in MCF7 cells over time, immunofluorescence; conditions: 20 J/m^2 UV
Protocol: (§2) Coverslips were sterilised in methanol and placed in the bottom of a 6-well culture dish. 2×10^5 MCF7 cells were seeded into each well of a 6-well culture dish in culture medium (RPMI-1640 with 10% FBS and 1% penicillin and streptomycin) and allowed to adhere for 24 hours. […] Cells were exposed to 20 J/m^2 UV using a […]-2400' (Stratagene). Cells were incubated at 37° C. for 0.5, 1 and 3 hours at which points they were washed with 2 mls PBS and fixed. Cells were fixed using 4% (w/v) paraformaldehyde for 20 minutes at room temperature and permeablised using 0.5% (v/v) Triton-X-100 for 30 minutes at room temperature. […] These were detected using the appropriate secondary antibodies diluted in 1% (w/v) BSA in PBS for 1 hour at room temperature protected from light: anti-rabbit AlexaFluor 546 (Invitrogen, 1:1000) or anti-mouse AlexaFluor 546 (Invitrogen, 1:1000). Coverslips were washed three times for 10 minutes in PBS after incubation with each antibody. DNA was stained using […] with DAPI (Vector Laboratories). Images were captured using a Zeiss LSM 700 confocal microscope (Zeiss) with Zen 2009 software (Zeiss) using and ×40 lens and wavelengths of 405 nm and 561 nm. Mean nuclear fluorescence for at least 50 nuclei was measured using Image) software (National Institutes of Health, USA) and the data analysed using GraphPad Prism software version 6.0.

ATR [4] = biological target: T1, ATR; test: ATR inhibition in purified PBMCs from human whole blood after DNA damaging agents, immunofluorescence; conditions: UV or 4-nitroquinoline, 10 μM VE-821
Protocol: Blood from healthy volunteers was collected by venepuncture into EDTA-coated blood collection tubes. 2×10 ml aliquots of blood was diluted 1:1 in PBS and transferred into 50 ml falcon tubes containing 10 mls FICOLL-PAQUE PLUS™ (GE Healthcare). PBMCs were separated using centrifugation through a FICOLL-PAQUE PLUS™ separation gradient. PBMCs from each tube were collected separately and washed twice with 20 mls PBS before being pooled and resuspended in 20 mls culture medium (RPMI-1640 with 10% FBS). 2 mls of PBMC suspension per treatment were transferred into one well of a 6-well culture dish. […] PBMCs were collected using centrifugation, washed in 1 ml PBS then resuspended in 1 ml PBS before being counted using a haemocytometer. 1×10^5 PBMCs were centrifuged onto microscope slides using a CYTOSPIN 2™ centrifuge (Shandon) for 5 minutes at 450 rpm. […] These were detected using the appropriate secondary antibodies diluted in 1% (w/v) BSA in PBS for 1 hour at room temperature protected from the light: anti-rabbit AlexaFluor 488 (Invitrogen, 1:1000) and anti-mouse AlexaFluor 546 (Invitrogen, 1:1000). […] Mean nuclear fluorescence for at least 50 nuclei was measured using ImageJ software (National Institutes of Health, USA) and the data analysed using GraphPad Prism software version 6.0.

γH2AX in MCF7 cells [5] = test: 4-nitroquinoline induced phosphorylation of H2AX in MCF7 cells over time, immunofluorescence; conditions: Homo sapiens, 2.5 μM 4-nitroquinoline
Protocol: as §1

[6] = tested on: pChk1^Ser345 in MCF7 cells; test: UV induced phosphorylation of Chk1 in MCF7 cells over time, immunofluorescence; conditions: 20 J/m^2 UV
Protocol: as §2

[7] = tested on: ATR-dependent phosphorylation events; test: 4-nitroquinoline induction of ATR-dependent phosphorylation events in cell lines and isolated PBMCs
Protocol: PBMCs were purified from fresh whole human blood using FICOLL-PAQUE™ density gradient centrifugation. Cells were counted and seeded at 5×10(5) per well in a round bottom 96 well plate in RPMI medium supplemented with 10% foetal calf serum (FCS) and penicillin/streptomycin/glutamine (PSQ). […] Washed cells were then fixed with 4% paraformaldehyde for 10 min, permeabilised with 0.5% Triton X-100 for 10 min and analysed for Histone H2AX S139 phosphorylation by flow cytometry on the using 1:200 diluted anti-γH2AX primary antibody clone JBW301 (Millipore), 1:500 goat anti-mouse Alexa Fluor488 (Invitrogen) and propidium iodide DNA staining.
Blood from healthy volunteers was collected by venepuncture into EDTA-coated blood collection tubes. […] PBMCs were collected using centrifugation, washed in 1 ml PBS then resuspended in 1 ml PBS before being counted using a haemocytometer. […] These were detected using the appropriate secondary antibodies diluted in 1% (w/v) BSA in PBS for 1 hour at room temperature protected from the light: anti-rabbit AlexaFluor 488 (Invitrogen, 1:1000) and anti-mouse AlexaFluor 546 (Invitrogen, 1:1000). […] Mean nuclear fluorescence for at least 50 nuclei was measured using ImageJ software (National Institutes of Health, USA) and the data analysed using GraphPad Prism software version 6.0. […]

[8] = tested on: pChk1^Ser345 and γH2AX in PBMCs; test: Evaluation of optimal 4-nitroquinoline concentration in PBMCs from treated human whole blood, immunofluorescence; conditions: 240 μM 4-nitroquinoline, 2 hours
Protocol: Blood from healthy volunteers was collected by venepuncture into EDTA-coated blood collection tubes. 2 mls of blood per treatment was transferred into 1 well of a 6-well plates already containing 2 mls PBS containing 2% (v/v) FBS and DMSO or 4-nitroquinoline (60, 120, 240, 480 μM final concentration). Following 2 hours incubation at 37° C. the blood mixture was transferred into 15 ml falcon tubes containing 2 mls FICOLL-PAQUE PLUS™ and the PBMCs separated using centrifugation through a FICOLL-PAQUE PLUS™ separation gradient. PBMCs were collected and washed twice using 10 mls PBS and resuspended in 1 ml PBS. PBMCs were counted using a haemocytometer and 1×10^5 PBMCs were centrifuged onto microscope slides using a CYTOSPIN 2™ centrifuge (Shandon) for 5 minutes at 450 rpm. Cells were fixed using 4% (w/v) paraformaldehyde for 20 minutes and permeablised using 0.5% (v/v) Triton-X-100 for 30 minutes. […] These were detected using the appropriate secondary antibodies diluted in 1% (w/v) BSA in PBS: anti-rabbit AlexaFluor 546 (Invitrogen, 1:1000) and anti-mouse AlexaFluor 546 (Invitrogen, 1:1000). […] Mean nuclear fluorescence for at least 50 nuclei was measured using Image) software (National Institutes of Health, USA) and the data analysed using GraphPad Prism software version 6.0.

[9] = tested on: pChk1^Ser345 and γH2AX in MCF7 cells; test: Evaluation of optimal 4-nitroquinoline concentration in MCF7 cells, immunofluorescence; conditions: 0.1-10 μM 4-nitroquinoline, 2 hours
Protocol: Coverslips were sterilised in methanol and placed in the bottom of a 6-well culture dish. 2×10^5 MCF7 cells were seeded into each well of a 6-well culture dish in culture medium (RPMI-1640 with 10% FBS and 1% penicillin and streptomycin) and allowed to adhere for 24 hours. Medium was replaced by fresh medium containing 4-nitroquinoline (0.1-10 μM) and incubated at 37° C. for 2 hours. Cells were washed in PBS, fixed using 4% (w/v) paraformaldehyde for 20 minutes at room temperature and permeablised using 0.5% (v/v) Triton-X-100 for 30 minutes at room temperature. Permeablised cells were blocked using 10% (v/v) goat serum and 5% (w/v) BSA in PBS for 1 hour, the coverslips removed and subjected to immunofluorescent analysis using primary antibodies diluted in 1% (w/v) BSA in PBS overnight at 4° C.: rabbit anti-pChk1^Ser345 (133D3, Cell Signaling Technology, 1:300) and mouse anti-phospho-Histone H2AX^Ser139 (JBW301, Millipore, 1:1000). These were detected using the appropriate secondary antibodies diluted in 1% (w/v) BSA in PBS for 1 hour at room temperature protected from light: anti-rabbit AlexaFluor 546 (Invitrogen, 1:1000) and anti-mouse AlexaFluor 546 (Invitrogen, 1:1000). […] Mean nuclear fluorescence for at least 50 nuclei was measured using Image) software (National Institutes of Health, USA) and the data analysed using GraphPad Prism software version 6.0.

ATR [10] = biological target: T1, ATR; test: ATR inhibition in PBMCs after treatment of human whole blood with 4-nitroquinoline, immunofluorescence; conditions: 240 μM 4-nitroquinoline 1 and 2 hr, 1 or 10 μM compound
Protocol: Blood from healthy volunteers was collected by venepuncture into EDTA-coated blood collection tubes. […] Following 1 or 2 hours incubation (as indicated) at 37° C. the blood mixture was transferred into 15 ml falcon tubes containing 2 mls FICOLL-PAQUE PLUS™ and the PBMCs separated using centrifugation through a FICOLL-PAQUE PLUS™ separation gradient. PBMCs were collected and washed twice using 10 mls PBS and resuspended in 1 ml PBS. PBMCs were counted using a haemocytometer and 1×10^5 PBMCs were centrifuged onto microscope slides using a CYTOSPIN 2™ centrifuge (Shandon) for 5 minutes at 450 rpm. Cells were fixed using 4% (w/v) paraformaldehyde for 20 minutes and permeablised using 0.5% (v/v) Triton-X-100 for 30 minutes. […] These were detected using the appropriate secondary antibodies diluted in 1% (w/v) BSA in PBS: anti-rabbit AlexaFluor 546 (Invitrogen, 1:1000) and anti-mouse AlexaFluor 546 (Invitrogen, 1:1000). […] Mean nuclear fluorescence for at least 50 nuclei was measured using Image) software (National Institutes of Health, USA) and the data analysed using GraphPad Prism software version 6.0.

ATR [11] = biological target: T2, ATR (Mus musculus, UniProt Q9JKK8); test: ATR inhibition in whole mouse blood ex vivo: 4-nitroquinoline stimulated H2AX phosphorylation in lymphocytes, flow cytometry
T2 construct: Whole human or mouse blood was collected in heparinised tubes; endogenous in cells; host or cells: lymphocytes in whole mouse blood ex vivo
Protocol: The samples were mixed by agitation, incubated for 10 min at 37° C. and stimulated with 62 uM (human) or 124 uM (mouse) 4-nitroquinoline for 1 h at 37° C. The samples were then fixed and red blood cells were lysed using Lyse/Fix Buffer (BD) for 5-10 min and white blood cells were collected by centrifugation according to the manufacturer's instructions. The samples were then transferred into 96 well round bottom plates and permeabilised using Triton X-100 according to method i). H2AX phosphorylation was then analysed by flow cytometry according to method i) with selection of lymphocytes using either standard scatterplot gating or CD3 staining. For specific analysis of H2AX phosphorylation in CD3 positive lymphocytes, cells were stained with 1:2.5 diluted PE-conjugated anti-human CD3 (BD) (human) and 1:50 diluted APC-conjugated anti-mouse CD3 (BD) (mouse) in place of propidium iodide and analyses of P-H2AX were performed on the CD3-positive population.

SMILES: CS(=O)(=O)c1ccc(-c2cnc(N)c(C(=O)Nc3ccccc3)n2)cc1 [VE-821]
- inhibition of UV-induced pChk1^Ser345 (ATR [1]): significant inhibition
- inhibition of UV-induced γH2AX (ATR [1]): significant inhibition
- inhibition at 10 µM [2]: > 70%
- inhibition of γH2AX (γH2AX in MCF7 cells [3]; at 0.5 hr): 80%
- inhibition of γH2AX (γH2AX in MCF7 cells [3]; at 3 hr): < 20%
- level of pChk1^Ser345 signal after co-administering compound (ATR [4]): reduction
- level of γH2AX signal after co-administering compound (ATR [4]): reduction
- inhibition at 10 µM (γH2AX in MCF7 cells [5]; 10 μM VE-821, at 1 hr): 70%
- inhibition at 10 µM (γH2AX in MCF7 cells [5]; 10 μM VE-821, at 3 hr): 40%
- inhibition (of UV-induced Chk1 phosphorylation) ([6]; at 0.5 hr): 70%
- inhibition (of UV-induced Chk1 phosphorylation) ([6]; at 3 hr): 55%

SMILES: O=[N+]([O-])c1ccnc2ccccc12 [4-nitroquinoline]
- concentration adequate to induce ATR-dependent phosphorylation events [7]: ≤ 5 µM
- phosphorylation of pChk1^Ser345 and γH2AX (biomarker induction) [8]: improved phosphorylation
- concentration required for pChk1^Ser345 and γH2AX induction compared with whole blood [9]: lower concentrations were required

SMILES: CNCc1ccc(-c2cc(-c3nc(-c4ccc(S(=O)(=O)C(C)C)cc4)cnc3N)on2)cc1 [VE-822]
- inhibition of 4-nitroquinoline-induced increases in γH2AX (ATR [10]): inhibited by VE-822 in a concentration-dependent manner
- pIC50 (ATR [11]): 6.00
